Assay results published in patent US20160228452A1, “TREATMENT OF METABOLIC DISEASES BY INHIBTION OF HTR2A OR HTR3” (Korea Advanced Institute of Science and Technology, priority 2014, published 2016).
Entries after “also recorded” stand apart in the source; their conditions may differ.

Key:
[1] = Blood chemistry analysis (serum cholesterol, LDL cholesterol, FFA, leptin by ELISA); assay type: in vivo; details: PCPA 300 mg/kg, 6 weeks, HFD-fed mice vs HFD-fed control
Protocol: Tissue serotonin was extracted by homogenization in extraction buffer containing 0.02% ascorbic acid in 0.1 M perchloric acid followed by centrifugation. The serotonin levels in the supernatants were measured via the liquid chromatography-mass spectrometry method. Serum leptin (Enzo Life Science, Farmingdale, N.Y., USA), LDL-cholesterol (Waco), and FFA (Biovision, Mountain View, Calif., USA) were measured using enzyme-linked immunosorbent assay (ELISA) kits.

[2] = tested on: BAT; assay: 18F-FDG PET/CT glucose utilization of BAT; assay type: in vivo; details: PCPA-treated HFD-fed mice vs HFD-fed control
Protocol: (§1) To measure the metabolic rate, the mice were housed individually in an eight-chamber, open-circuit Oxymax/CLAMS (Columbus Instruments Comprehensive Lab Animal Monitoring System) system as previously described^33. Each mouse was assessed for 72 h in the fed state to determine their metabolic rates. PET imaging was performed using a microPET R4 scanner (Concorde Microsystems, Siemens) as previously described^34.

[3] = Metabolic analysis by indirect calorimetry (Oxymax/CLAMS); assay type: in vivo, mice
Protocol: as §1

[4] = High-fat-diet-induced obesity in mice: growth curves, body weight and eWAT mass; assay type: in vivo; details: PCPA 300 mg/kg daily i.p., 10 weeks, HFD-fed mice vs HFD-fed control
Text: The generation of Tph^flox/flox mice, Adipoq-cre mice, and aP2-CreERT2 mice has previously been reported^17,30,31. C57BL/6J mice, Htr3a-targeted KO mice (B6.129X1-Htr3a^tm1jul/J, Htr3a KO) and leptin-deficient ob/ob mice (B6.V-Lep^ob/J) were purchased from the Jackson Laboratory (Bar Harbor, Me., USA). To create the adipose tissue-specific Tph1 KO mice, Tph1^flox/flox mice were crossed with Adipoq-Cre mice (Tph1 FKO mice) and aP2-CreERT2 mice (Tph1 AFKO mice). The mice were housed in climate-controlled, specific pathogen-free (SPF) barrier facilities under a 12-h light-dark cycle, and chow and water were provided ad libitum. The Institutional Animal Care and Use Committee at the Korea Advanced Institute of Science and Technology approved the experimental protocols for this study. Htr3a KO mice and Tph1^flox/flox mice were backcrossed with C57BL/6J mice for more than 10 generations. Cre-recombination of 6-week-old Tph1 AFKO mice was induced by intraperitoneal (IP) injection of 5 doses of 2 mg of tamoxifen (Sigma) for 1 week. We fed male mice (aged 8˜10 weeks) either on SCD (standard chow diet; 12% fat calories, Purina Laboratory Rodent Diets 38057) or HFD (60% fat calories, Research Diets D12492). PBS or 300 mg/kg PCPA was administered as a daily intraperitoneal injection. LP-533401 was dissolved in PEG-400 and 5% dextrose (40:60 ratio). Vehicle or 30 mg/kg LP-533401 was administered daily with a feeding needle. We randomly divided C57BL/6J mice into 2-4 groups. For transgenic mice, we compared data between KO mice and their WT littermates. No blinding was done.

[5] = tested on: eWAT, iWAT and BAT; assay: Histological analysis of adipose tissues (H&E, Ucp1/Plin1 immunohistochemistry, TEM); assay type: in vivo, mice
Protocol: Inguinal, epididymal and interscapular adipose tissues were harvested, fixed in 4% (w/v) paraformaldehyde in PBS and embedded in paraffin. Then, 5-μm-thick tissue sections were deparaffinized, rehydrated and used for hematoxylin and eosin (H&E) staining, immunohistochemistry and immunofluorescence. For antigen retrieval, the slides were submerged in 10 mM sodium citrate (pH 6.0) and heated to 95° C. for 20 minutes. Visualization of Ucp1 and Plin1 was performed using a VECTASTAIN ABC Kit (PK-4001, Vector Laboratories, Burlingame, Calif., USA) according to the manufacturer's instructions. Briefly, the slides were incubated with BLOXALL Blocking solution (SP-6000, Vector Laboratories) followed by incubation with 2% normal goat serum for 30 min at room temperature to block non-specific binding. Sections were incubated with primary antibody against Ucp1 (ab10983, Abcam) or Plin1 (ab3526, Abcam) for 1 h at room temperature followed by 30-min incubation with a species-specific, biotinylated secondary antibody. The slides were incubated with Vectastain ABC-AP reagent for 30 min and then incubated with […] substrate (DAB, SK-4100, Vector Laboratories) for visualization. The stains and antibodies used for the immunofluorescence staining included BODIPY (BODIPY®493/503, Invitrogen), anti-5HT (ab10385, Abcam) and DAPI (D9542, Sigma). Electron microscopy images of BAT were obtained by transmission electron microscopy (Tecnai Spirit TEM) as previously described^35. Briefly, the BAT was first fixed with 2.5% glutaraldehyde, and after fixation, ultra-thin sections were cut, stained with uranyl acetate and lead citrate and then examined under an electron microscope.

[6] = intraventricular injection, reference 19; cited from earlier work
[7] = Glucose tolerance test and insulin tolerance test; assay type: in vivo, mice; details: PCPA-treated HFD-fed mice vs HFD-fed control
Protocol: For the glucose tolerance tests, the mice were administered 2 g/kg D-glucose in PBS after overnight fasting. For the insulin tolerance tests, the mice were intraperitoneally injected with insulin (0.75 U/kg) after being fasted for 4 h. The blood glucose levels in blood samples obtained from tail veins 0, 15, 30, 45, 60, 90 and 120 min after injection were measured using a Gluco DR Plus glucometer (Allmedicus).

[8] = tested on: genes involved in lipid metabolism and thermogenesis; assay: Real-time RT-PCR of mouse adipose tissues; assay type: in vivo, mice
Protocol: Total RNA was extracted from the mouse tissues or cell lines using TRIzol reagent (Invitrogen) according to the manufacturer's protocol. After TURBO DNase (Invitrogen) treatment, 2 μg of total RNA was used to generate complementary DNA with Superscript III reverse transcriptase (Invitrogen). To analyze gene expression, real-time PCR was performed with a ViiA 7 Real-Time PCR system (Applied Biosystems) and the Power SYBR Green PCR master mix (Applied Biosystems). Relative quantification was based on the ddCt method, and ActB was used as an endogenous control (internal control).

[9] = PCPA-treated vs control mice, HFD for 6 weeks

N[C@@H](Cc1ccc(Cl)cc1)C(=O)O (racemic) [PCPA, p-chlorophenylalanine]
blood level of LDL cholesterol [1]: decreased
blood level of free fatty acid (FFA) [1]: decreased; also recorded: reduced
blood level of leptin [1]: decreased; also recorded: reduced
serum cholesterol [1]: reduced
glucose (18F-FDG) uptake into BAT [2]: significantly increased glucose uptake
metabolic rates (metabolic cage data) on standard chow diet ([3]; PCPA 300 mg/kg for 6 weeks vs vehicle, SCD-fed mice): did not affect the metabolic rates; also recorded: no significant differences
O2 consumption [3, 9]: increased
carbon dioxide production (VCO2) [3, 9]: increased carbon dioxide production
energy expenditure [3, 9]: increased energy expenditure
heat production [3, 9]: increased
body weight gain [4]: decreased weight gain; also recorded: reduction in body weight gain
eWAT mass [4]: reduced eWAT mass; also recorded: decreased eWAT
iWAT adipocyte size, HFD vs SCD within PCPA-treated mice ([5]; 18-week-old PCPA-treated mice, HFD for 10 weeks compared with PCPA-treated mice fed an SCD): decreased adipocyte size
number and size of mitochondria in BAT (TEM) ([5]; HFD-fed mice with PCPA treatment for 6 weeks): increased size and number of mitochondria
eWAT cellular structure / cell damage (Plin1 staining) ([5]; PCPA 300 mg/kg for 6 weeks, SCD or HFD): normal cellular structures; also recorded: No gross cell damage was observed
browning of iWAT (Ucp1-expressing multilocular cells) ([5]; PCPA-treated mice): brown adipocyte-like multilocular cells that expressed Ucp1 were observed
density of the cristae in BAT mitochondria ([5]; PCPA-treated mice): increased
iWAT adipocyte size ([5]; PCPA-treated mice): decreased
multilocular adipocytes in BAT ([5]; PCPA-treated mice, HFD): increased multilocular adipocytes
BAT lipid droplet size ([5]; PCPA-treated vs control BAT, regardless of diet): decreased lipid droplet sizes
eWAT adipocyte size ([5]; PCPA-treated vs control mice, SCD or HFD): decreased adipocyte size; also recorded: did not increase the adipocyte size
appetite [6]: reduce appetite
body weight [6]: increase body weight
glucose tolerance ([7]; 2 g/kg glucose after overnight fasting): improved glucose tolerance
insulin sensitivity / insulin resistance ([7]; insulin 0.75 U/kg after 4 h fasting): improved; also recorded: reduced insulin resistance
Dio2 mRNA level in BAT ([8]; PCPA 300 mg/kg, 6 weeks): highest increase
thermogenic gene expression in BAT ([8]; PCPA 300 mg/kg, 6 weeks): increased thermogenic gene expression
Dio2 mRNA level in iWAT ([8]; PCPA-treated mice fed an HFD): increased
Ucp1 mRNA level in iWAT ([8]; PCPA-treated mice fed an HFD): increased
expression of lipogenic (triglyceride storage) genes in eWAT ([8]; PCPA-treated vs control mice, both SCD and HFD): suppressed expression
